Series [1] relates to T. cruzi epimastigotes. Particulars: ref [14], cited from earlier work.
In series [2] the test system is T. cruzi epimastigotes. The series can be described thus: T. cruzi epimastigotes growth inhibition, [3H] thymidine uptake assay. The series is classed as cell-based, Trypanosoma cruzi. Particulars: for IC50: 72 h, read-out: IC50 (μg/mL) ± SD on T. cruzi epimastigotes; for SI (selectivity index, relation between CC50 and IC50): CC50 splenocytes / IC50 epimastigotes.
The next series concerns T. cruzi (K-98 clone). The series can be described thus: In vivo trypanocidal activity, murine model of Chagas disease. On the set-up: species or system BALB/c mice. The note with it: 1 mg/kg/day i.p.
The test system of a further series is HeLa cells. The note with it: read-out: IC50, cytotoxicity on HeLa cells, ref [28]; cited from earlier work.

In brackets after ≈: the same amount, converted by molar mass.

On to `COC1=C(C(C)C)C(=O)C2=C(C[C@@]34CCCC(C)(C)[C@@H]3C[C@]2(O)O4)C1=O` [K, Komaroviquinone], for which the IC50 of komaroviquinone entry with T. cruzi epimastigotes [1] (T. cruzi epimastigotes) is “a Komaroviquinone IC50 = 1.00 μg/mL ref ([14])”. In addition, the “log (1/IC50) of komaroviquinone” value with T. cruzi epimastigotes [1] (from IC50 = 1.00 μg/mL, IC50 in molar) is reported as 5.43.

In the case of `O=C(Cn1ccnc1[N+](=O)[O-])NCc1ccccc1` [benznidazole], the IC50 in the series on T. cruzi epimastigotes [2] (Trypanosoma cruzi) amounted to 1 ± 0.62 µg/mL (≈ 3.84 µM). Further, in the series on T. cruzi (K-98 clone) (days 11-15 post-infection), the “area under the parasitemia curve (AUC)” value was 4. Moreover, the sterile cure entry in the series on T. cruzi (K-98 clone) (five days) is “neither Bz was able to cure”.

For `C=C1C(=O)O[C@@H]2C[C@@H](C)[C@@H]3C=CC(=O)[C@@]3(C)[C@@H](O)[C@H]12` [compound 10, helenalin], the “SI (selectivity index, relation between CC50 and IC50)” value in the series with T. cruzi epimastigotes [2] is 1.1. Further, the IC50 with T. cruzi epimastigotes [2] (Trypanosoma cruzi) is 0.29 ± 0.05 µg/mL (≈ 1.11 µM). The inhibition at 1.5 µg/mL with T. cruzi epimastigotes [2] (Trypanosoma cruzi, read-out: inhibition of parasite replication) came out at 66%.

For `C=C1C(=O)O[C@@H]2[C@H]1CC[C@H](C)[C@@]1(O)C=CC(=O)[C@@]21C` [compound 14, hymenin], the “SI (selectivity index, relation between CC50 and IC50)” value in the series with T. cruzi epimastigotes [2] came out at 0.8. Also, in the series on T. cruzi epimastigotes [2] (Trypanosoma cruzi), the IC50 amounted to 1.5 ± 0.09 µg/mL (≈ 5.72 µM).

In the case of `C=C1C[C@H](O)[C@H](Br)C(C)(C)[C@@]12CCC(C)=C(Cl)C2` [elatol], the IC50 with HeLa cells was 1300 nM.

What is called inhibition is how much of the control response was suppressed.

The record behind these values is PMC8757452 (ACS Omega, 2021).
